Patent publication US7335500B2, “Production of fucosylated carbohydrates by enzymatic fucosylation synthesis of sugar nucleotides; and in situ regeneration of GDP-fucose” (The Scripps Research Institute, priority 1991, dated 2008)

Columns and labels:
[1] = target: T1, human plasma type α1,3FucT (Homo sapiens, UniProt Q11128); assay: Substrate specificity and inhibition study of α1,3FucT (GDP-14C-Fuc transfer assay); format: biochemical; details: 0.1 mM GDP-Fuc
T1 sequence (Q11128 1-374): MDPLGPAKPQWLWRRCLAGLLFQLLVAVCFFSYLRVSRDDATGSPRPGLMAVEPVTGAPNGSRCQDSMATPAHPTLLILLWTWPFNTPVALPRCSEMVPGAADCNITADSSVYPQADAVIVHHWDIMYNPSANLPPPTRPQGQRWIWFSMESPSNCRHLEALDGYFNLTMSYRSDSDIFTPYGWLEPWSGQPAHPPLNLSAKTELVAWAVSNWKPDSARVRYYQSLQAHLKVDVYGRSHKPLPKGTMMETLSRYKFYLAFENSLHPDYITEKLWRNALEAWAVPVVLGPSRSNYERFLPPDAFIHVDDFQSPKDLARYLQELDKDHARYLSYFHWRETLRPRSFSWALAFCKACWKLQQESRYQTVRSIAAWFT
Procedure: The assay procedure was essentially the same as described previously [Fukowska-Latallo et al, Gene & Development, 4:1288 (1990)] with some modifications. A stock mixture containing 0.25 mM GDP-^14C-Fuc (5000 cpm/mL), 6.25 mM ATP, 25 mM MnCl2 and 62.5 mM sodium cacodylate buffer, pH 6.2 was mixed freshly and kept on ice. […] The incubation was carried out at 37° C. for 30 to 240 minutes depending upon the acceptor under study. Separate assays in the absence of acceptor were used to correct for background hydrolysis of GDP-Fuc. Upon completion of incubation, 400 μL of a 25 percent (v/v) suspension of QAE-Sephadex was added. […] From the supernatant fluid, 200 μL were extracted and mixed with 10 mL of scintillation cocktail. The radioactivity was counted on a scintillation counter. […] This assay can be run in the absence of ATP.

α2,3SiaT = target: T2, α2,3SiaT (Rattus norvegicus, UniProt Q02734); assay: Enzymatic sialylation with α2,3sialyltransferase; format: biochemical
T2 construct: fusion protein between the pre-insulin signal peptide and the catalytic domain of the sialyltransferase; pre-insulin signal peptide (N); made in house; host or cells: Sf-9 insect cells (baculovirus rBv2,3ST), secreted into the medium
T2 sequence (Q02734 48-374 limits assumed): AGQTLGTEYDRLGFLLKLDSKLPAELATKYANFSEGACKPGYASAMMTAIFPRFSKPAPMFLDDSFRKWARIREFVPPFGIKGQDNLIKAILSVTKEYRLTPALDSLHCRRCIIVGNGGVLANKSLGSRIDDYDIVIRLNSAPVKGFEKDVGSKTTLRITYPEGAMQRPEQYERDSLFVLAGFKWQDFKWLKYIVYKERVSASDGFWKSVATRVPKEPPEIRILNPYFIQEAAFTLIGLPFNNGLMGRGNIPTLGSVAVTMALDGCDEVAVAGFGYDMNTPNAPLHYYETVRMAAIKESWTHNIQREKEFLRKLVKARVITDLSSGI
Source text: Sialylation A multienzyme system for sialylation starts with NeuAc, [Gal-1-^13C]-LacNAcβOallyl, PEP, and catalytic amounts of ATP and CMP, as is shown in Scheme 16, below. CMP was converted to CDP by nucleoside monophosphate kinase (EC 2.7.4.4, NMK) in the presence of ATP, which was regenerated from its byproduct ADP catalyzed by PK in the presence of PEP, then to CTP with PEP by PK. The CTP was then reacted with NeuAc with CMP-NeuAc synthetase (EC 2.7.7.43) to produce CMP-NeuAc. The byproduct, PPi was hydrolyzed to Pi by PPase. Sialylation of LacNAcβOallyl was accomplished with CMP-NeuAc and α2,3sialyltransferase (α2,3SiaT; EC 2.4.99.6). The released CMP was again converted to CDP, CTP, and finally to CMP-NeuAc. Using this system, [Gal-1-^13C]NeuAcα2,3Galβ1,4GlcNAcβOallyl (Compound 42) as well as the unlabelled trisaccharide were prepared.
A solution of Compound 1-^13C-41 (210 mg, […]), NeuAc (160 mg, […]), PEP Na3 salt (120 mg, 0.51 mmol), MgCl2.6H2O (20 mg, 0.10 mmol), MnCl2.4H2O (4.9 mg, 0.025 mmol), KCl (7.5 mg, 0.10 mmol), CMP (16 mg, 0.05 mmol), ATP (2.7 mg, […]) and mercaptoethanol (0.34 mL) in HEPES buffer (200 mM, pH 7.5; 3.5 mL) was adjusted with N NaOH to pH 7.5 and the enzymes, NMK (5 U), PK (100 U), PPase (10 U), CMP-NeuAc synthetase (0.4 U) and α2,3SiaT (0.1 U) were added to the solution. […]

IC50 ([1]; 10 mM Mn2+ and 10 mM LacNAc at pH 6.2 and 37° C.): > 50 mM
Vrel (relative maximal velocities) ([1]; 10 mM MnCl2 and 10 mM Galβ1,4GlcNAc, Galβ1,4GlcNAc = 100): 10
substrate for α2,3SiaT (in words) (α2,3SiaT): good substrate
Structure (SMILES): OC[C@H]1O[C@@H](O[C@H]2[C@H](O)C=CO[C@@H]2CO)[C@H](O)[C@@H](O)[C@H]1O [Galβ1,4Glucal]
